Where two headings read alike, the source gives them in different places.
Assays:
Vibrio cholerae = assay: Expected efficacy of antibiotic agents; settings: expected efficacy against Vibrio cholerae; Gram: neg
Citrobacter diversus = assay: Expected efficacy of antibiotic agents; settings: expected efficacy against Citrobacter diversus; Gram: neg
Escherichia coli = assay: Expected efficacy of antibiotic agents; settings: expected efficacy against Escherichia coli; Gram: neg
Salmonella typhi = assay: Expected efficacy of antibiotic agents; settings: expected efficacy against Salmonella typhi; Gram: neg
Clostridium difficile = assay: Expected efficacy of antibiotic agents; settings: expected efficacy against Clostridium difficile; Gram: anaer
Streptococcus agalactiae = assay: Expected efficacy of antibiotic agents; settings: expected efficacy against Streptococcus agalactiae; Gram: pos
[1] = test system: Staphylococcus aureus (MSSA); assay: Expected efficacy of antibiotic agents; settings: expected efficacy against Staphylococcus aureus (MSSA); Gram: pos
[2] = test system: Klebsiella (Calymmatobacterium); assay: Expected efficacy of antibiotic agents; settings: expected efficacy against Klebsiella (Calymmatobacterium); Gram: neg
Klebsiella oxytoca = assay: Expected efficacy of antibiotic agents; settings: expected efficacy against Klebsiella oxytoca; Gram: neg
Proteus vulgaris = assay: Expected efficacy of antibiotic agents; settings: expected efficacy against Proteus vulgaris; Gram: neg
Enterobacter aerogenes = assay: Expected efficacy of antibiotic agents; settings: expected efficacy against Enterobacter aerogenes; Gram: neg
Campylobacter jejuni = assay: Expected efficacy of antibiotic agents; settings: expected efficacy against Campylobacter jejuni; Gram: neg
Bacteroides fragilis = assay: Expected efficacy of antibiotic agents; settings: expected efficacy against Bacteroides fragilis; Gram: anaer
[3] = test system: Methicillin resistant staph aureus (MRSA); assay: Expected efficacy of antibiotic agents; settings: expected efficacy against Methicillin resistant staph aureus (MRSA); Gram: pos
Streptococcus pyogenes = assay: Expected efficacy of antibiotic agents; settings: expected efficacy against Streptococcus pyogenes; Gram: pos
Klebsiella pneumoniae = assay: Expected efficacy of antibiotic agents; settings: expected efficacy against Klebsiella pneumoniae; Gram: neg
Mycoplasma pneumoniae = assay: Expected efficacy of antibiotic agents; settings: expected efficacy against Mycoplasma pneumoniae; Gram: n/a
Moraxella catarrhalis = assay: Expected efficacy of antibiotic agents; settings: expected efficacy against Moraxella catarrhalis; Gram: neg
Pseudomonas aeruginosa = assay: Expected efficacy of antibiotic agents; settings: expected efficacy against Pseudomonas aeruginosa; Gram: neg
Neisseria gonorrhoeae = assay: Expected efficacy of antibiotic agents; settings: expected efficacy against Neisseria gonorrhoeae; Gram: neg
[4] = test system: Acinetobacter calcoaceticus; assay: Expected efficacy of antibiotic agents; settings: expected efficacy against Acinetobacter calcoaceticus; Gram: neg
Haemophilus ducreyi = assay: Expected efficacy of antibiotic agents; settings: expected efficacy against Haemophilus ducreyi; Gram: neg
Shigella boydii = assay: Expected efficacy of antibiotic agents; settings: expected efficacy against Shigella boydii; Gram: neg
[5] = test system: Corynebacterium urealyticum; assay: Expected efficacy of antibiotic agents; settings: expected efficacy against Corynebacterium urealyticum; Gram: pos
Chlamydia pneumoniae = assay: Expected efficacy of antibiotic agents; settings: expected efficacy against Chlamydia pneumoniae; Gram: n/a
Streptococcus pneumoniae = assay: Expected efficacy of antibiotic agents; settings: expected efficacy against Streptococcus pneumoniae; Gram: pos
Proteus mirabilis = assay: Expected efficacy of antibiotic agents; settings: expected efficacy against Proteus mirabilis; Gram: neg
Enterobacter cloacae = assay: Expected efficacy of antibiotic agents; settings: expected efficacy against Enterobacter cloacae; Gram: neg
Chlamydia trachomatis = assay: Expected efficacy of antibiotic agents; settings: expected efficacy against Chlamydia trachomatis; Gram: n/a
Morganella morganii = assay: Expected efficacy of antibiotic agents; settings: expected efficacy against Morganella morganii; Gram: neg
Shigella dysenteriae = assay: Expected efficacy of antibiotic agents; settings: expected efficacy against Shigella dysenteriae; Gram: neg
Diphtheroids = assay: Expected efficacy of antibiotic agents; settings: expected efficacy against Diphtheroids; Gram: pos
[6] = test system: Staphylococcus epidermidis; assay: Expected efficacy of antibiotic agents; settings: expected efficacy against Staphylococcus epidermidis; Gram: pos
Neisseria meningitidis = assay: Expected efficacy of antibiotic agents; settings: expected efficacy against Neisseria meningitidis; Gram: neg
Enterococcus faecium = assay: Expected efficacy of antibiotic agents; settings: expected efficacy against Enterococcus faecium; Gram: pos
Citrobacter freundii = assay: Expected efficacy of antibiotic agents; settings: expected efficacy against Citrobacter freundii; Gram: neg
Corynebacterium jeikeium = assay: Expected efficacy of antibiotic agents; settings: expected efficacy against Corynebacterium jeikeium; Gram: pos

CO/N=C(\C(=O)N[C@@H]1C(=O)N2C(C(=O)O)=C(CSc3nc(=O)c(=O)[nH]n3C)CS[C@H]12)c1csc(N)n1 [Ceftriaxone]
Efficacy (Vibrio cholerae): no
Efficacy (Citrobacter diversus): yes
Efficacy (Escherichia coli): yes
Efficacy (Rickettsiae; expected efficacy against Rickettsiae, Gram: neg): no
Efficacy (Salmonella typhi): yes
Efficacy (Clostridium difficile): no
Efficacy (Streptococcus agalactiae): yes
Efficacy [1]: yes
Efficacy [2]: yes
Efficacy (Klebsiella oxytoca): yes
Efficacy (Yersinia pestis; expected efficacy against Yersinia pestis, Gram: neg): no
Efficacy (Proteus vulgaris): yes
Efficacy (Enterobacter aerogenes): yes
Efficacy (Campylobacter jejuni): no
Efficacy (Chlamydia psittaci; expected efficacy against Chlamydia psittaci, Gram: n/a): no
Efficacy (Bacteroides fragilis): yes
Efficacy [3]: no
Efficacy (Streptococcus pyogenes): yes
Efficacy (Legionella pneumophila; expected efficacy against Legionella pneumophila, Gram: neg): no
Efficacy (Klebsiella pneumoniae): yes
Efficacy (Mycoplasma pneumoniae): no
Efficacy (Moraxella catarrhalis): yes
Efficacy (Pseudomonas aeruginosa): no
Efficacy (Neisseria gonorrhoeae): yes
Efficacy [4]: no
Efficacy (Haemophilus ducreyi): yes
Efficacy (Shigella boydii): yes
Efficacy [5]: no
Efficacy (Chlamydia pneumoniae): no
Efficacy (Streptococcus pneumoniae): yes
Efficacy (Proteus mirabilis): yes
Efficacy (Francisella tularensis; expected efficacy against Francisella tularensis, Gram: neg): no
Efficacy (Enterobacter cloacae): yes
Efficacy (Clostridium perfringens; expected efficacy against Clostridium perfringens, Gram: anaer): yes
Efficacy (Chlamydia trachomatis): no
Efficacy (Morganella morganii): yes
Efficacy (Shigella dysenteriae): yes
Efficacy (Diphtheroids): no
Efficacy [6]: yes
Efficacy (Neisseria meningitidis): yes
Efficacy (Enterococcus faecium): no
Efficacy (Citrobacter freundii): yes
Efficacy (Corynebacterium jeikeium): no

CN[C@H](CC(C)C)C(=O)N[C@H]1C(=O)N[C@@H](CC(N)=O)C(=O)N[C@H]2C(=O)N[C@H]3C(=O)N[C@H](C(=O)N[C@H](C(=O)O)c4cc(O)cc(O)c4-c4cc3ccc4O)[C@H](O)c3ccc(c(Cl)c3)Oc3cc2cc(c3O[C@@H]2O[C@H](CO)[C@@H](O)[C@H](O)[C@H]2O[C@H]2C[C@](C)(N)[C@H](O)[C@H](C)O2)Oc2ccc(cc2Cl)[C@H]1O [Vancomycin]
Efficacy (Vibrio cholerae): no
Efficacy (Citrobacter diversus): no
Efficacy (Escherichia coli): no
Efficacy (Rickettsiae): no
Efficacy (Salmonella typhi): no
Efficacy (Clostridium difficile): yes
Efficacy (Streptococcus agalactiae): yes
Efficacy [1]: yes
Efficacy [2]: no
Efficacy (Klebsiella oxytoca): no
Efficacy (Yersinia pestis): no
Efficacy (Proteus vulgaris): no
Efficacy (Enterobacter aerogenes): no
Efficacy (Campylobacter jejuni): no
Efficacy (Chlamydia psittaci): no
Efficacy (Bacteroides fragilis): no
Efficacy [3]: yes
Efficacy (Streptococcus pyogenes): yes
Efficacy (Legionella pneumophila): no
Efficacy (Klebsiella pneumoniae): no
Efficacy (Mycoplasma pneumoniae): no
Efficacy (Moraxella catarrhalis): no
Efficacy (Pseudomonas aeruginosa): no
Efficacy (Neisseria gonorrhoeae): no
Efficacy [4]: no
Efficacy (Haemophilus ducreyi): no
Efficacy (Shigella boydii): no
Efficacy [5]: yes
Efficacy (Chlamydia pneumoniae): no
Efficacy (Streptococcus pneumoniae): yes
Efficacy (Proteus mirabilis): no
Efficacy (Francisella tularensis): no
Efficacy (Enterobacter cloacae): no
Efficacy (Clostridium perfringens): no
Efficacy (Chlamydia trachomatis): no
Efficacy (Morganella morganii): no
Efficacy (Shigella dysenteriae): no
Efficacy (Diphtheroids): yes
Efficacy [6]: yes
Efficacy (Neisseria meningitidis): no
Efficacy (Enterococcus faecium): yes, not VRE
Efficacy (Citrobacter freundii): no
Efficacy (Corynebacterium jeikeium): yes

Reference: patent publication US20220265694A1, “COMPOSITIONS AND METHODS FOR TREATING AN INFECTION” (CMPD LICENSING, LLC, priority 2016, published 2022)
